From patent publication US20240199555A1, “APPLICATIONS OF BIASED LIGANDS OF THE SEROTONIN 5-HT7 RECEPTOR FOR THE TREATMENT OF PAIN, MULTIPLE SCLEROSIS AND THE CONTROL OF THERMOREGULATION” (Centre National de la Recherche Scientifique, priority 2021, published 2024) come the findings set out here.

The subject of test [1] is HEK-293 mock cells. The test is described as follows: Control in mock-transfected HEK-293 cells (cAMP, ERK phosphorylation). Format: cell-based, human. On the procedure: ERK phosphorylation was monitored by western blotting after treatment of cells with 10 μM of ligands at different times ranging from 2 to 60 minutes. […] The kinetics of ERK phosphorylation elicited by 5-CT, Serodolin and MOA-51 were very similar: activation was fast and transient, and reached a pick between 2 and 7 minutes after drug exposure. However, ERK phosphorylation-induced by Serodolin and MOA-51 was more protracted compared to 5-CT, the reference agonist.

In test [2] the target is human 5-HT2A receptor (Homo sapiens (Human), UniProt P28223). Kind of test: Radioligand binding competition, 5-HT2A. The following applies: selectivity panel.
Chain of human 5-HT2A receptor (P28223 whole entry): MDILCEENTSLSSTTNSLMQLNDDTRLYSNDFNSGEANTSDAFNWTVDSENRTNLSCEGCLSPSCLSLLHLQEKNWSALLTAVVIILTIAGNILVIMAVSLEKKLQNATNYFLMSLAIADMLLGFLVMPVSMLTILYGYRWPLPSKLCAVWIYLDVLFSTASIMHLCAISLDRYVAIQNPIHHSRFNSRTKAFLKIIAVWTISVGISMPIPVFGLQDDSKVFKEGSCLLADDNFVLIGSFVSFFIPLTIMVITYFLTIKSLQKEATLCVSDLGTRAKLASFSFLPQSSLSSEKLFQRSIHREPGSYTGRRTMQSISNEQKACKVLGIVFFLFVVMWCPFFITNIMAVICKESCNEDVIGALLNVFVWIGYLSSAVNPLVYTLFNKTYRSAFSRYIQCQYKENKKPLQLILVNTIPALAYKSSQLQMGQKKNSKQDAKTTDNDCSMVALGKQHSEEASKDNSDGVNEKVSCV
Test [3] deals with 5-HT7R / β-arrestin2 (Homo sapiens (Human), UniProt P34969). The test is described as follows: β-arrestin 2 BRET in HEK-293 cells transfected with 5-HT7R. Format: cell-based. The settings on record: wild type 5-HT7R, intramolecular biosensor. On the procedure:
FIG. 8: Serodolin-induced ERK phosphorylation is dependent on β-arrestin 2 recruitment. (A) HEK-293 or KO β-arrestin HEK-293 cells were transiently transfected with HA-5-HT7R and stimulated with 5-CT (10 μM), Serodolin (10 μM) or Vehicle (0.1% DMSO diluted in PBS solution) used as a control for 7 min. Representative blots of three independent experiments are illustrated. (B) Quantification of p-ERK and p-c-SRC were performed using Alphascreen technology. Data are means±SEM of values obtained in three independent experiments. (C) HEK-293 cells were transiently transfected with HA-h5-HT7R with β-arrestin2 BRET biosensor (Rluc-Arrestin-YPET), then incubated with increasing doses of 5-CT, or Serodolin (10^-11 to 10^-5 M). Ligand mediated BRET changes are expressed as induced BRET changes which were generated by subtracting at each point the signal of the cells incubated with PBS (without ligand). Data were fitted using non-linear regression using GraphPad Prism software. […]
The inventors then investigated whether the Serodolin-induced β-arrestin recruitement using BRET experiments. […] After transfection of 5-HT7R-RLuc and arrestin2-YFP used as a BRET pair, the inventors evaluated the ability of 5-HT7R ligands to recruit β-arrestin. […]

Chain of 5-HT7R / β-arrestin2 (P34969 1-432): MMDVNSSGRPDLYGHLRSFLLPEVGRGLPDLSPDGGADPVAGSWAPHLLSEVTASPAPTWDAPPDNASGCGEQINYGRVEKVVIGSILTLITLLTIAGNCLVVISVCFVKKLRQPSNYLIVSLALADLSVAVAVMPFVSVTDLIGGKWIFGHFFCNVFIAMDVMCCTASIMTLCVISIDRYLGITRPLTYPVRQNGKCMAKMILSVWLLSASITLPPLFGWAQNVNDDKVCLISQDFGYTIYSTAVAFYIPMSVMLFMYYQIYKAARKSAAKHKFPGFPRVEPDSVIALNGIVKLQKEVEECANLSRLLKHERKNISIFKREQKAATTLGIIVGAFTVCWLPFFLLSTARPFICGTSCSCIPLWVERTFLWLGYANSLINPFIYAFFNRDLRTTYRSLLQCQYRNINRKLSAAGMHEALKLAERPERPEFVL

Turning to `O=c1[nH]c2ccccc2n1CN1CCN(c2ccc(F)cc2)CC1` [Serodolin], the “ERK phosphorylation in HEK-293 mock cells” value in test [1] was “neither Serodolin, nor MOA-51 were able to induce ERK phosphorylation”. In test [2] (read-out: RLB 5-HT2A IC50), the IC50 stood at 16.9 nM. In addition, in test [2] (read-out: RLB 5-HT2A Ki), the Ki is 2.8 nM. Also, the “BRET signal of RLuc-arrestin2-YPET biosensor” value in test [3] is on record as “concentration-dependent increase of BRET signal”.
